Results: patent US20140315838A1, “Methods of Treating Recurring Bacterial Infection” (Optimer Pharmaceuticals, Inc., priority 2010, published 2014)

System: Clostridium difficile
Test: Phase 3 randomized, double-blind clinical trials of 10-day treatment of C. difficile infection: recurrence rate
Type: in vivo, human
Conditions: 10-day oral treatment (fidaxomicin 200 mg bid, vancomycin 125 mg qid), relapse out to 4 weeks after end of treatment
Method: Subjects with mild to moderate C. difficile, males and females aged […] with >3 diarrheal (liquid or unformed) stools/day and with a positive enzyme immunoassay for C. difficile toxin or cell cytotoxicity assay and no more than 24 hours of prior treatment for C. difficile were eligible for enrollment. Only subjects with a primary episode or first relapse of disease were eligible. […] Subjects with ileus, WBC >30×10^9/L, toxic megacolon, or concern about life-threatening CDI were excluded from study entry. Subjects with severe underlying disease who were not expected to survive for 72 hours regardless of cause, who had had more than a single occurrence within 3 months, or who had Crohn's disease or ulcerative colitis were also excluded. […] They were evaluated for clinical cure at end of therapy and relapse out to 4 weeks following the end of treatment.

[1] = Stratum: Single Prior Episode of CDI (recurring CDI)

Compound | Recurrence Rate (Stratum: No Prior Episode of CDI) | Recurrence Rate [1] | Recurrence Rate (Stratum: Single Prior Episode of CDI (recurring CDI), listed as fidaxomicin) | Recurrence Rate (Stratum: Single Prior Episode of CDI (recurring CDI), listed as vancomycin)
CCc1c(Cl)c(O)c(Cl)c(O)c1C(=O)O[C@H]1[C@H](O)[C@H](OC)[C@H](OC/C2=C\C=C\C[C@H](O)/C(C)=C/[C@H](CC)[C@@H](O[C@@H]3OC(C)(C)[C@@H](OC(=O)C(C)C)[C@H](O)[C@@H]3O)/C(C)=C/C(C)=C/C[C@@H]([C@@H](C)O)OC2=O)O[C@@H]1C [Fidaxomicin] | 38/325 (11.6%) | 13/66 (19.6%) | 19.6% | 
CN[C@H](CC(C)C)C(=O)N[C@H]1C(=O)N[C@@H](CC(N)=O)C(=O)N[C@H]2C(=O)N[C@H]3C(=O)N[C@H](C(=O)N[C@H](C(=O)O)c4cc(O)cc(O)c4-c4cc3ccc4O)[C@H](O)c3ccc(c(Cl)c3)Oc3cc2cc(c3O[C@@H]2O[C@H](CO)[C@@H](O)[C@H](O)[C@H]2O[C@H]2C[C@](C)(N)[C@H](O)[C@H](C)O2)Oc2ccc(cc2Cl)[C@H]1O [Vancomycin, reference compound] |  | 22/62 (35.5%) |  | 35.5%
